In patent US8247211B2, “Glycopeptide antibiotics” (American Cyanamid Company, priority 2001, dated 2012):
≈ marks a conversion by molar mass, not a printed value. Numbered stars: 1 amine (or outer) side, 2 acyl side, 3 side chain; on linkers, the order of the positions; unused ones are H or OH. Square brackets hold non-standard residues; d marks the D form. Peptide text beside a SMILES is read from it. ξ: configuration not given here. X1 = N=C1NCC(C(O)C(N[*:1])C(=O)[*:2])N1C1OC(CO)C(O)C(O)C1O; ξEnduracididine(βξ-OH,4'ξ) = N=C1NCC(C(O)C(N)C(=O)O)N1

Legend:
Test in all cases: In vitro antibacterial evaluation: minimum inhibitory concentration (MIC), broth dilution method
Format in all cases: cell-based
Escherichia coli [1] = tested on: Escherichia coli
Enterococcus sp. = tested on: Enterococcus sp.
Procedure, shortened: (§1)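 First, organisms are seeded at 5×10^5 CFU/mL into Muller-Hinton II […]. Next, antibiotic is applied across 64-0.06 μg/mL by broth dilution (NCCLS M7-A2). Finally, the lowest inhibitory concentration is recorded as MIC.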

Escherichia coli [2] = tested on: Escherichia coli; remark: listed apart in the source
Procedure, shortened: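 NCCLS M7-A2 broth dilution with Mueller-Hinton II, testing 64-0.06 μg/mL antibiotic against 5×10^5 CFU/mL inocula. Test strains include recent methicillin-, penicillin- or vancomycin-resistant clinical isolates. MIC is the lowest concentration preventing growth.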

Staphylococcus sp. = conditions: 18 hours at 35° C.
Procedure, shortened: as §1

In the case of CCC(C)C(=O)OC1C(CO)OC(OC2C(CO)OC(Oc3ccc(CC4NC(=O)C(C(C)c5ccccc5)NC(=O)CNC(=O)C(CO)NC(=O)C(C(O)C5CNC(=N)N5C5OC(CO)C(O)C(O)C5O)NC(=O)C(C(O)C5CNC(=N)N5)NC4=O)cc3)C(O)C2O)C(O)C1O (stereo not drawn) [Example 278c, Cyclo[glycyl-β-methylphenylalanyl-O-[4-O-[4-O-(2-methylbutanoyl)hexopyranosyl]hexopyranosyl]tyrosyl-3-(2-iminoimidazolidin-4-yl)seryl-3-(3-hexopyranosyl-2-iminoimidazolidin-4-yl)serylseryl]], the “MIC Escherichia coli (ATCC 25922)” value (Escherichia coli [1]) is reported as greater than 64 µg/mL, the “MIC Enterococcus avium (GC 4558)” value (Enterococcus sp.) is reported as 32 µg/mL (≈ 23.2 µM) and the “MIC Enterococcus faecalis (ATCC 29212)” value (Enterococcus sp.) is reported as 32 µg/mL (≈ 23.2 µM). The “MIC Enterococcus faecalis (GC 4553)” value (Enterococcus sp.) was 32 µg/mL (≈ 23.2 µM), the “MIC Enterococcus faecalis (GC 4554)” value (Enterococcus sp.) was 32 µg/mL (≈ 23.2 µM) and the “MIC Enterococcus faecalis (GC 6189)” value (Enterococcus sp.) was 32 µg/mL (≈ 23.2 µM). For the same molecule, the “MIC Enterococcus faecium (GC 2243)” value (Enterococcus sp.) was 32 µg/mL (≈ 23.2 µM), the “MIC Enterococcus faecium (GC 4556)” value (Enterococcus sp.) was 32 µg/mL (≈ 23.2 µM) and the “MIC Enterococcus faecium (GC 4557)” value (Enterococcus sp.) was 8 µg/mL (≈ 5.8 µM). For the same molecule, the “MIC Escherichia coli (GC 4559)” value (Escherichia coli [2]) was greater than 64 µg/mL, the “MIC Escherichia coli (GC 4560)” value (Escherichia coli [2]) was 2 µg/mL (≈ 1.45 µM) and the “MIC Coagulase Negative Staphylococcus (GC 4547)” value (Staphylococcus sp.) was 4 µg/mL (≈ 2.9 µM). For the same molecule, the “MIC Coagulase Negative Staphylococcus (GC 4547)” value (Staphylococcus sp.; broth dilution) was 4 µg/mL (≈ 2.9 µM), the “MIC Coagulase Negative Staphylococcus (GC 4548)” value (Staphylococcus sp.) was 2 µg/mL (≈ 1.45 µM) and the “MIC Coagulase Negative Staphylococcus (GC 4548)” value (Staphylococcus sp.; broth dilution) was 2 µg/mL (≈ 1.45 µM). For the same molecule, the “MIC Coagulase Negative Staphylococcus (GC 4549)” value (Staphylococcus sp.) was 2 µg/mL (≈ 1.45 µM), the “MIC Coagulase Negative Staphylococcus (GC 4549)” value (Staphylococcus sp.; broth dilution) was 2 µg/mL (≈ 1.45 µM) and the “MIC Coagulase Negative Staphylococcus (GC 4551)” value (Staphylococcus sp.) was 8 µg/mL (≈ 5.8 µM). The “MIC Coagulase Negative Staphylococcus (GC 4551)” value (Staphylococcus sp.; broth dilution) was 8 µg/mL (≈ 5.8 µM), the “MIC Coagulase Negative Staphylococcus (GC 6257)” value (Staphylococcus sp.) was 2 µg/mL (≈ 1.45 µM) and the “MIC Coagulase Negative Staphylococcus (GC 6257)” value (Staphylococcus sp.; broth dilution) was 2 µg/mL (≈ 1.45 µM). The “MIC Staphylococcus aureus (ATCC 29213)” value (Staphylococcus sp.) was 4 µg/mL (≈ 2.9 µM), the “MIC Staphylococcus aureus (ATCC 29213)” value (Staphylococcus sp.; broth dilution) was 4 µg/mL (≈ 2.9 µM) and the “MIC Staphylococcus aureus (GC 1131)” value (Staphylococcus sp.) was 8 µg/mL (≈ 5.8 µM). The “MIC Staphylococcus aureus (GC 1131)” value (Staphylococcus sp.; broth dilution) was 8 µg/mL (≈ 5.8 µM), the “MIC Staphylococcus aureus (GC 3051)” value (Staphylococcus sp.) was 2 µg/mL (≈ 1.45 µM) and the “MIC Staphylococcus aureus (GC 3051)” value (Staphylococcus sp.; broth dilution) was 2 µg/mL (≈ 1.45 µM). The “MIC Staphylococcus aureus (GC 3053)” value (Staphylococcus sp.) was 8 µg/mL (≈ 5.8 µM), the “MIC Staphylococcus aureus (GC 3053)” value (Staphylococcus sp.; broth dilution) was 8 µg/mL (≈ 5.8 µM) and the “MIC Staphylococcus aureus (GC 4541)” value (Staphylococcus sp.) was 4 µg/mL (≈ 2.9 µM). For the same molecule, the “MIC Staphylococcus aureus (GC 4541)” value (Staphylococcus sp.; broth dilution) was 4 µg/mL (≈ 2.9 µM), the “MIC Staphylococcus aureus (GC 4542)” value (Staphylococcus sp.) was 4 µg/mL (≈ 2.9 µM) and the “MIC Staphylococcus aureus (GC 4542)” value (Staphylococcus sp.; broth dilution) was 4 µg/mL (≈ 2.9 µM). The “MIC Staphylococcus aureus (GC 4544)” value (Staphylococcus sp.) was 4 µg/mL (≈ 2.9 µM), the “MIC Staphylococcus aureus (GC 4544)” value (Staphylococcus sp.; broth dilution) was 4 µg/mL (≈ 2.9 µM) and the “MIC Staphylococcus aureus (GC 4545)” value (Staphylococcus sp.) was 4 µg/mL (≈ 2.9 µM). For the same molecule, the “MIC Staphylococcus aureus (GC 4545)” value (Staphylococcus sp.; broth dilution) was 4 µg/mL (≈ 2.9 µM), the “MIC Staphylococcus aureus-SMITH (GC 4543)” value (Staphylococcus sp.) was 4 µg/mL (≈ 2.9 µM) and the “MIC Staphylococcus aureus-SMITH (GC 4543)” value (Staphylococcus sp.; broth dilution) was 4 µg/mL (≈ 2.9 µM). For the same molecule, the “MIC Staphylococcus haemolyticus (GC 4546)” value (Staphylococcus sp.) was 2 µg/mL (≈ 1.45 µM) and the “MIC Staphylococcus haemolyticus (GC 4546)” value (Staphylococcus sp.; broth dilution) was 2 µg/mL (≈ 1.45 µM).
With N=C1NCC(C(O)C2NC(=O)C(Cc3ccc(O)cc3)NC(=O)C(Cc3ccccc3)NC(=O)CNC(=O)C(CO)NC(=O)C(C(O)C3CNC(=N)N3C3OC(CO)C(O)C(O)C3O)NC2=O)N1 (stereo not drawn) [Example 279a, Cyclo[glycylphenylalanyltyrosyl-3-(2-iminoimidazolidin-4-yl)seryl-3-(3-hexopyranosyl-2-iminoimidazolidin-4-yl)serylseryl]] (cyclo(GFY[ξEnduracididine(βξ-OH,4'ξ)][X1]S); configuration not given here) the “MIC Escherichia coli (ATCC 25922)” value (Escherichia coli [1]) was 64 µg/mL (≈ 66.9 µM), the “MIC Enterococcus avium (GC 4558)” value (Enterococcus sp.) was greater than 64 µg/mL and the “MIC Enterococcus faecalis (ATCC 29212)” value (Enterococcus sp.) was greater than 64 µg/mL. For the same molecule, the “MIC Enterococcus faecalis (GC 4553)” value (Enterococcus sp.) was greater than 64 µg/mL, the “MIC Enterococcus faecalis (GC 4554)” value (Enterococcus sp.) was greater than 64 µg/mL and the “MIC Enterococcus faecalis (GC 6189)” value (Enterococcus sp.) was greater than 64 µg/mL. The “MIC Enterococcus faecium (GC 2243)” value (Enterococcus sp.) was greater than 64 µg/mL, the “MIC Enterococcus faecium (GC 4556)” value (Enterococcus sp.) was greater than 64 µg/mL and the “MIC Enterococcus faecium (GC 4557)” value (Enterococcus sp.) was 64 µg/mL (≈ 66.9 µM). The “MIC Escherichia coli (GC 4559)” value (Escherichia coli [2]) was 64 µg/mL (≈ 66.9 µM), the “MIC Escherichia coli (GC 4560)” value (Escherichia coli [2]) was 32 µg/mL (≈ 33.4 µM) and the “MIC Coagulase Negative Staphylococcus (GC 4547)” value (Staphylococcus sp.) was 64 µg/mL (≈ 66.9 µM). For the same molecule, the “MIC Coagulase Negative Staphylococcus (GC 4547)” value (Staphylococcus sp.; broth dilution) was 64 µg/mL (≈ 66.9 µM), the “MIC Coagulase Negative Staphylococcus (GC 4548)” value (Staphylococcus sp.) was greater than 64 µg/mL and the “MIC Coagulase Negative Staphylococcus (GC 4548)” value (Staphylococcus sp.; broth dilution) was greater than 64 µg/mL. For the same molecule, the “MIC Coagulase Negative Staphylococcus (GC 4549)” value (Staphylococcus sp.) was 64 µg/mL (≈ 66.9 µM), the “MIC Coagulase Negative Staphylococcus (GC 4549)” value (Staphylococcus sp.; broth dilution) was 64 µg/mL (≈ 66.9 µM) and the “MIC Coagulase Negative Staphylococcus (GC 4551)” value (Staphylococcus sp.) was greater than 64 µg/mL. For the same molecule, the “MIC Coagulase Negative Staphylococcus (GC 4551)” value (Staphylococcus sp.; broth dilution) was greater than 64 µg/mL, the “MIC Coagulase Negative Staphylococcus (GC 6257)” value (Staphylococcus sp.) was 64 µg/mL (≈ 66.9 µM) and the “MIC Coagulase Negative Staphylococcus (GC 6257)” value (Staphylococcus sp.; broth dilution) was 64 µg/mL (≈ 66.9 µM). For the same molecule, the “MIC Staphylococcus aureus (ATCC 29213)” value (Staphylococcus sp.) was greater than 64 µg/mL, the “MIC Staphylococcus aureus (ATCC 29213)” value (Staphylococcus sp.; broth dilution) was greater than 64 µg/mL and the “MIC Staphylococcus aureus (GC 1131)” value (Staphylococcus sp.) was greater than 64 µg/mL. For the same molecule, the “MIC Staphylococcus aureus (GC 1131)” value (Staphylococcus sp.; broth dilution) was greater than 64 µg/mL, the “MIC Staphylococcus aureus (GC 3051)” value (Staphylococcus sp.) was greater than 64 µg/mL and the “MIC Staphylococcus aureus (GC 3051)” value (Staphylococcus sp.; broth dilution) was greater than 64 µg/mL. For the same molecule, the “MIC Staphylococcus aureus (GC 3053)” value (Staphylococcus sp.) was greater than 64 µg/mL, the “MIC Staphylococcus aureus (GC 3053)” value (Staphylococcus sp.; broth dilution) was greater than 64 µg/mL and the “MIC Staphylococcus aureus (GC 4541)” value (Staphylococcus sp.) was greater than 64 µg/mL. For the same molecule, the “MIC Staphylococcus aureus (GC 4541)” value (Staphylococcus sp.; broth dilution) was greater than 64 µg/mL, the “MIC Staphylococcus aureus (GC 4542)” value (Staphylococcus sp.) was greater than 64 µg/mL and the “MIC Staphylococcus aureus (GC 4542)” value (Staphylococcus sp.; broth dilution) was greater than 64 µg/mL. For the same molecule, the “MIC Staphylococcus aureus (GC 4544)” value (Staphylococcus sp.) was greater than 64 µg/mL, the “MIC Staphylococcus aureus (GC 4544)” value (Staphylococcus sp.; broth dilution) was greater than 64 µg/mL and the “MIC Staphylococcus aureus (GC 4545)” value (Staphylococcus sp.) was greater than 64 µg/mL. The “MIC Staphylococcus aureus (GC 4545)” value (Staphylococcus sp.; broth dilution) was greater than 64 µg/mL, the “MIC Staphylococcus aureus-SMITH (GC 4543)” value (Staphylococcus sp.) was greater than 64 µg/mL and the “MIC Staphylococcus aureus-SMITH (GC 4543)” value (Staphylococcus sp.; broth dilution) was greater than 64 µg/mL. For the same molecule, the “MIC Staphylococcus haemolyticus (GC 4546)” value (Staphylococcus sp.) was 64 µg/mL (≈ 66.9 µM) and the “MIC Staphylococcus haemolyticus (GC 4546)” value (Staphylococcus sp.; broth dilution) was 64 µg/mL (≈ 66.9 µM).
